This is an account of results in ChEMBL document CHEMBL1129258, “Synthesis and structure-activity relationships of 2-pyridones: a novel series of potent DNA gyrase inhibitors as antibacterial agents” (J Med Chem, 1996).

The target in experiment [1] is T1, DNA gyrase (Staphylococcus aureus) (UniProt P0A0K8+P20831). The experiment is described as follows: In vivo efficacy against Staphylococcus aureus NCTC-10649M after subcutaneous administration. The format is functional, organism-based.
Experiment [2] addresses T1, DNA gyrase (Staphylococcus aureus). Nature of the experiment: In vivo efficacy against Staphylococcus aureus NCTC-10649M after oral administration. The format is functional, organism-based.
Experiment [3] addresses T2, DNA gyrase (Escherichia coli) (UniProt P0AES6+P0AES4). Nature of the experiment: In vivo efficacy against Escherichia coli JUHL by subcutaneous administration. The format is functional, organism-based. The conditions noted are these: Escherichia coli K-12.
In experiment [4] the target is T2, DNA gyrase (Escherichia coli). Nature of the experiment: In vivo efficacy against Escherichia coli JUHL after oral administration. The conditions noted are these: Escherichia coli K-12. The format is functional, organism-based.
Experiment [5] addresses T1, DNA gyrase (Staphylococcus aureus). Nature of the experiment: In vitro antibacterial activity against gram-positive organism Staphylococcus aureus ATCC 6538p. Type of experiment: functional.
The target is the same in experiment [6]. Nature of the experiment: In vitro antibacterial activity against gram-positive organism Staphylococcus aureus 1775. Type of experiment: functional.
Experiment [7] deals with T2, DNA gyrase (Escherichia coli). The experiment is described as follows: In vitro antibacterial activity against gram-negative organism Klebsiella pneumoniae ATCC 8045. The format is functional.
A further experiment deals with Streptococcus pyogenes. The experiment is described as follows: In vitro antibacterial activity against gram-positive organism Streptococcus pyogenes EES61. The format is functional. The conditions noted are these: Streptococcus pyogenes; read-out: MIC.
Experiment [8] in a line: In vitro antibacterial activity against gram-negative organism Pseudomonas aeruginosa DPHD-2862. Type of experiment: functional. The conditions noted are these: Pseudomonas aeruginosa; read-out: MIC.
The target in experiment [9] is T2, DNA gyrase (Escherichia coli). Nature of the experiment: In vitro antibacterial activity against gram-positive organism Streptococcus bovis A-5169. The format is functional. The conditions noted are these: Streptococcus equinus.
Experiment [10] has the same target. Nature of the experiment: In vitro antibacterial activity against gram-negative organism Prov. stuartii CMX-640. Type of experiment: functional. The conditions noted are these: Providencia stuartii.
Experiment [11] has the same target. The conditions noted are these: Escherichia coli K-12.
Description: Concentration which causes 50% of the gyrase (Escherichia coli H560)-mediated maximal DNA cleavage.
The target is the same in experiment [12]. The experiment is described as follows: In vitro antibacterial activity against gram-positive organism Enterococcus faecium ATCC 8043. The format is functional.
The target in experiment [13] is T1, DNA gyrase (Staphylococcus aureus). Nature of the experiment: In vitro antibacterial activity against gram-positive organism Staphylococcus aureus NCTC-10649M. Type of experiment: functional.
Experiment [14] concerns the target T2, DNA gyrase (Escherichia coli). The experiment is described as follows: In vitro antibacterial activity against gram-negative organism […] ATCC 13048. Type of experiment: functional. The conditions noted are these: Enterobacter aerogenes.
Experiment [15] shares this target. The experiment is described as follows: In vitro antibacterial against gram-negative organism Escherichia coli JUHL. Type of experiment: functional. The conditions noted are these: Escherichia coli K-12.
Experiment [16] in a line: In vitro antibacterial activity against gram-negative organism Pseudomonas aeruginosa 5007. The format is functional.
Where [17] appears, read: Pseudomonas aeruginosa, read-out: MIC.

Converted amounts (≈) assume the structure as drawn.

T1 sequence (P0A0K8 2-644 limits assumed): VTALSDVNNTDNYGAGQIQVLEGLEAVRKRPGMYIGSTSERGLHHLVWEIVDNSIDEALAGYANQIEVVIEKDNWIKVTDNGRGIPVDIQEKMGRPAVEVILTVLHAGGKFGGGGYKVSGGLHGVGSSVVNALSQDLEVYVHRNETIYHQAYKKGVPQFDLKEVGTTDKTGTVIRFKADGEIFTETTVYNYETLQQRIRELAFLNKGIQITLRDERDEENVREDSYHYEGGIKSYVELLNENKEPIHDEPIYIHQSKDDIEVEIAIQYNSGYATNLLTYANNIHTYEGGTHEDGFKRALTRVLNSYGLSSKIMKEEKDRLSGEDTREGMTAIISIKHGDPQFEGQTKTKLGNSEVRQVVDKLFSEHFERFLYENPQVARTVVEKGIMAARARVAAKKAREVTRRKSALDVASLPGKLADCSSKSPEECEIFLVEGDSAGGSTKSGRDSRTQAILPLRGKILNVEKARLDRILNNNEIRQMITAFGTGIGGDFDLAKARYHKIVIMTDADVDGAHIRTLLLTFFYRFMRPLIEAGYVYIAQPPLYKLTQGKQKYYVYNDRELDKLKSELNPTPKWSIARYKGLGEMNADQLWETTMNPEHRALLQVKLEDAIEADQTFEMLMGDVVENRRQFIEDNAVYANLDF
T1 sequence (P20831 whole entry partner): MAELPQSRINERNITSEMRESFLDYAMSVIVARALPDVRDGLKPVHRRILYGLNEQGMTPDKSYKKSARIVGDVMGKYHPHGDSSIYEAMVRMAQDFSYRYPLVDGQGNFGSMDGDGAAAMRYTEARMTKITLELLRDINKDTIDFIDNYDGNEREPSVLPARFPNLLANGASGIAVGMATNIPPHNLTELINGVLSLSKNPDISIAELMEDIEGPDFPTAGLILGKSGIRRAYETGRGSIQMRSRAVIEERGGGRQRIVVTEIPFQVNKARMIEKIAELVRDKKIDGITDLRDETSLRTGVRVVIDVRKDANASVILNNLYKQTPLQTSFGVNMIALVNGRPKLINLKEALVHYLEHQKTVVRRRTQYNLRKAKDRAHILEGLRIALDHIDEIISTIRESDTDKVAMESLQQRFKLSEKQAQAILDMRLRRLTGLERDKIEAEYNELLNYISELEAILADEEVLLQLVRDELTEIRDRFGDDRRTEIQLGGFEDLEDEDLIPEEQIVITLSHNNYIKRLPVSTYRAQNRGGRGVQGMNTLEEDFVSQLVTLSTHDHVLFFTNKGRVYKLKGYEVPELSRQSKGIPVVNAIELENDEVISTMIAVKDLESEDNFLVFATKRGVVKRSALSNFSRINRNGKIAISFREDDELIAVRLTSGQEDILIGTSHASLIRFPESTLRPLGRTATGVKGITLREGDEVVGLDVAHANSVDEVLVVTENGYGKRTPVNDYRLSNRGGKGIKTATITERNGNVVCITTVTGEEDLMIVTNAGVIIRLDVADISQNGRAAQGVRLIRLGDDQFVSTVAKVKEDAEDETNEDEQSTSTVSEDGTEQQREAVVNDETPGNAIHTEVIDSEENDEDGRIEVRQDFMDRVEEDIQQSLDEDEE

The term ED50 denotes the dose that gives a 50% effect, or the effect in half of the subjects. Lower therefore signals an effect at a small dose. Take `CC(NC(=O)C(C)N[C@H]1C[C@H](C)N(c2nc3c(-c4ccc(F)cc4F)cc(C(=O)O)c(=O)n3cc2F)C1)C(=O)O` (stereo not given in full): the ED50 worked out at 11.4 mg/kg in experiment [1], 25.3 mg/kg in experiment [2], 3.3 mg/kg in [3] and 26.7 mg/kg in experiment [4].
Regarding `NC1CCN(c2c(F)cn3c(=O)c(C(=O)O)cc(C4CC4)c3c2F)C1` (stereo not given), the MIC turned out to be 0.1 µg/mL (≈ 0.286 µM) in experiment [5]; 6.2 µg/mL (≈ 17.7 µM) in experiment [6]; 0.01 µg/mL (≈ 0.0286 µM) in experiment [7]; 0.78 µg/mL (≈ 2.23 µM) with Streptococcus pyogenes; 6.2 µg/mL (≈ 17.7 µM) in [8]; 0.78 µg/mL (≈ 2.23 µM) in experiment [9]. The MIC came out at 3.1 µg/mL (≈ 8.87 µM) in experiment [10]; 0.78 µg/mL (≈ 2.23 µM) in [12]; 0.1 µg/mL (≈ 0.286 µM) in experiment [13]; 0.02 µg/mL (≈ 0.0573 µM) in experiment [14]; 0.01 µg/mL (≈ 0.0286 µM) in experiment [15]; 0.39 µg/mL (≈ 1.12 µM) in experiment [16] (setting [17]). Further, the ED50 in experiment [1] amounted to 2.9 mg/kg; in [2], 14.6 mg/kg. The compound also displayed a CC50 in experiment [11] of 2.2 µg/mL (≈ 6.3 µM).
As to `Cc1c(N2CC[C@@]3(C[C@H]3N)C2)c(F)cn2c(=O)c(C(=O)O)cc(C3CC3)c12`, the MIC in experiment [5] is 0.005 µg/mL (≈ 0.0135 µM); in [6], 0.39 µg/mL (≈ 1.05 µM); in [7], 0.01 µg/mL (≈ 0.0269 µM); with Streptococcus pyogenes, 0.02 µg/mL (≈ 0.0538 µM); in [8] it was 6.2 µg/mL (≈ 16.7 µM); in experiment [10], 0.78 µg/mL (≈ 2.1 µM). The MIC was found to be 0.05 µg/mL (≈ 0.135 µM) in experiment [12]; 0.01 µg/mL (≈ 0.0269 µM) in experiment [13]; 0.05 µg/mL (≈ 0.135 µM) in experiment [14]; 0.01 µg/mL (≈ 0.0269 µM) in experiment [15]; 0.39 µg/mL (≈ 1.05 µM) in [16] (setting [17]). Also, the ED50 was found to be 1.5 mg/kg in [1], 6.3 mg/kg in experiment [2], 1.9 mg/kg in [3] and 12.8 mg/kg in experiment [4].
As to `C[C@H]1C[C@H](N)CN1c1nc2c(-c3ccc(F)cc3F)cc(C(=O)O)c(=O)n2cc1F`, the MIC in [5] was 0.1 µg/mL (≈ 0.239 µM); in experiment [6] it was 50 µg/mL (≈ 120 µM); in [7], 0.01 µg/mL (≈ 0.0239 µM); in the experiment on Streptococcus pyogenes it was 0.78 µg/mL (≈ 1.86 µM); in experiment [8] it was 50 µg/mL (≈ 120 µM); in experiment [9], 1.56 µg/mL (≈ 3.73 µM). For the same compound, the MIC in [10] is 6.2 µg/mL (≈ 14.8 µM); in experiment [12] it was 0.78 µg/mL (≈ 1.86 µM); in experiment [13], 0.1 µg/mL (≈ 0.239 µM); in [14] it was 0.1 µg/mL (≈ 0.239 µM); in [15], 0.02 µg/mL (≈ 0.0478 µM); in [16] (setting [17]) it was 0.39 µg/mL (≈ 0.932 µM). The CC50 in [11] was found to be 0.5 µg/mL (≈ 1.2 µM).
Take `Cc1c(N2C[C@H]3CCC[C@H](N)[C@H]3C2)c(F)cn2c(=O)c(C(=O)O)cc(C3CC3)c12`: the MIC is 0.005 µg/mL (≈ 0.0125 µM) in [5]; 0.39 µg/mL (≈ 0.976 µM) in experiment [6]; 0.02 µg/mL (≈ 0.0501 µM) in experiment [7]; 0.02 µg/mL (≈ 0.0501 µM) in the experiment with Streptococcus pyogenes; 6.2 µg/mL (≈ 15.5 µM) in experiment [8]; 0.01 µg/mL (≈ 0.025 µM) in [9]. The MIC in experiment [10] turned out to be 0.78 µg/mL (≈ 1.95 µM); in experiment [12], 0.02 µg/mL (≈ 0.0501 µM); in [13], 0.005 µg/mL (≈ 0.0125 µM); in experiment [14], 0.1 µg/mL (≈ 0.25 µM); in [15], 0.02 µg/mL (≈ 0.0501 µM); in [16], 0.39 pug ml-1. In experiment [11], this compound gave a CC50 of 0.3 µg/mL (≈ 0.751 µM).
Regarding `Cc1c(N2CCC(n3ccnn3)C2)c(F)cn2c(=O)c(C(=O)O)cc(C3CC3)c12` (stereo not given), the MIC in [5] amounted to 0.01 µg/mL (≈ 0.0252 µM); in experiment [6], 0.78 µg/mL (≈ 1.96 µM); in experiment [7] it was 0.05 µg/mL (≈ 0.126 µM); with Streptococcus pyogenes it was 0.05 µg/mL (≈ 0.126 µM); in experiment [8], 12.5 µg/mL (≈ 31.5 µM); in experiment [9] it was 0.2 µg/mL (≈ 0.503 µM). In addition, the MIC is 0.39 µg/mL (≈ 0.981 µM) in experiment [10]; 0.05 µg/mL (≈ 0.126 µM) in [12]; 0.01 µg/mL (≈ 0.0252 µM) in experiment [13]; 0.2 µg/mL (≈ 0.503 µM) in [14]; 0.01 µg/mL (≈ 0.0252 µM) in experiment [15]; 0.39 µg/mL (≈ 0.981 µM) in [16] (setting [17]). Moreover, the CC50 in [11] came to 0.07 µg/mL (≈ 0.176 µM).
Regarding `Cc1c(N2C[C@H]3CCC[C@@H](N)[C@H]3C2)c(F)cn2c(=O)c(C(=O)O)cc(C3CC3)c12`, the MIC came to 0.005 µg/mL (≈ 0.0125 µM) in experiment [5]; 0.1 µg/mL (≈ 0.25 µM) in experiment [6]; 0.02 µg/mL (≈ 0.0501 µM) in [7]; 0.005 µg/mL (≈ 0.0125 µM) in the experiment with Streptococcus pyogenes; 6.2 µg/mL (≈ 15.5 µM) in [8]; 0.002 µg/mL (≈ 0.00501 µM) in experiment [9]. For the same compound, the MIC in [10] came to 0.39 µg/mL (≈ 0.976 µM); in experiment [12] it was 0.02 µg/mL (≈ 0.0501 µM); in experiment [13], 0.005 µg/mL (≈ 0.0125 µM); in [14], 0.1 µg/mL (≈ 0.25 µM); in experiment [15], 0.01 µg/mL (≈ 0.025 µM); in [16] (setting [17]) it was 0.39 µg/mL (≈ 0.976 µM). Moreover, the ED50 in experiment [1] is 0.3 mg/kg; in [2], 1.4 mg/kg.
As for `Cc1c(N2C[C@@H]3CCN[C@@H]3C2)c(F)cn2c(=O)c(C(=O)O)cc(C3CC3)c12` (stereo in doubt; (S,S)45o), the MIC in [5] is 0.05 µg/mL (≈ 0.135 µM); in experiment [6], 3.1 µg/mL (≈ 8.35 µM); in [7], 0.01 µg/mL (≈ 0.0269 µM); in [9] it was 0.1 µg/mL (≈ 0.269 µM); in experiment [10], 0.39 µg/mL (≈ 1.05 µM); in experiment [12], 0.1 µg/mL (≈ 0.269 µM). Also, the MIC in experiment [13] came to 0.05 µg/mL (≈ 0.135 µM); in experiment [14] it was 0.05 µg/mL (≈ 0.135 µM); in experiment [15], 0.02 µg/mL (≈ 0.0538 µM). The ED50 in experiment [1] is 1.5 mg/kg; in experiment [2], 5 mg/kg; in experiment [3], 0.8 mg/kg; in [4], greater than 10 mg/kg.
